What is called IC50 is the midpoint of a concentration-inhibition curve. For orientation: GI50 means the concentration that inhibits growth by half. A lower GI50 goes with greater sensitivity of the cells. For orientation: inhibition means the share of the control response that was lost under treatment. Read a high inhibition as a response far below the control. Broadly, the half-life is the time in which the quantity being followed falls by half. By MTD is commonly meant the highest dose tested that stayed within the study's limit of toxicity. One may read the Tmax as the time at which the peak concentration occurs. A word on the Cmax: it is the peak of the concentration-time curve. Broadly, the bioavailability is dose-corrected exposure relative to a reference, in per cent. Higher therefore signals much systemic uptake. A word on the inhibition in vivo: it is the drop in the measured response relative to a control, in per cent.

The test system of series [1] is K562. Put plainly: cells. In kind it is functional, cell-based. The conditions noted are these: Homo sapiens, K562, 72 h.
Description: Antiproliferative activity against human K562 cells assessed as inhibition of cell growth measured after 72 hrs by CCK-8 assay
In series [2] the test system is U-266. In words: cells. In kind it is functional, cell-based. The conditions noted are these: Homo sapiens, U-266, 72 h.
Description: Antiproliferative activity against human U-266 cells assessed as inhibition of cell growth measured after 72 hrs by CCK-8 assay
Series [3] relates to U-937. In words: cells. In kind it is functional, cell-based. The conditions noted are these: Homo sapiens, U-937, 72 h.
Description: Antiproliferative activity against human U-937 cells assessed as inhibition of cell growth measured after 72 hrs by CCK-8 assay
The test system of a further series is C6. Put plainly: cells. The series is classed as functional, cell-based. Particulars: Rattus norvegicus, C6, 72 h.
The test system of the next series is FaDu. In words: cells. In kind it is functional, cell-based. The conditions noted are these: Homo sapiens, 72 h.
In series [4] the test system is MDA-MB-231. In words: cells. The series is classed as functional, cell-based. The conditions noted are these: Homo sapiens, MDA-MB-231, 72 h.
Description: Antiproliferative activity against human MDA-MB-231 cells assessed as inhibition of cell growth measured after 72 hrs by CCK-8 assay
The subject of series [5] is MDA-MB-468. Put plainly: cells. In kind it is functional, cell-based. Particulars: Homo sapiens, MDA-MB-468, 72 h.
Description: Antiproliferative activity against human MDA-MB-468 cells assessed as inhibition of cell growth measured after 72 hrs by CCK-8 assay
Another series has as its system A549. Put plainly: cells. The series is classed as functional, cell-based. The conditions noted are these: Homo sapiens, A549, 72 h.
The subject of another series is A2780. Put plainly: cells. The series is classed as functional, cell-based. The conditions noted are these: Homo sapiens, A2780, 72 h.
Series [6] has as its system HepG2. Put plainly: cells. The series is classed as functional, cell-based. The conditions noted are these: Homo sapiens, HepG2, 72 h.
The subject of the next series is PC-3. Put plainly: cells. Particulars: Homo sapiens, time 96 hrs. In kind it is functional.
Series [7] deals with Histone deacetylase. Put plainly: Inhibition of HDAC in human HeLa cell nuclear extract using Boc-Lys(Ac)-AMC as substrate preincubated for 15 mins followed by substrate addition and measured after 60 mins by fluorescence based analysis. The series is classed as subcellular, Nucleus.
Series [8] has as its target MAP kinase-interacting serine/threonine-protein kinase 1 (Homo sapiens) (UniProt Q9BUB5). Put plainly: Inhibition of MNK1 (unknown origin) at 1 uM incubated for 60 mins by HTRF assay relative to control. (TR-FRET usually uses a lanthanide donor and a delayed reading to cut background.)
Series [9] addresses MAP kinase-interacting serine/threonine-protein kinase 2 (Homo sapiens) (UniProt Q9HBH9). Put plainly: Inhibition of MNK2 (unknown origin) at 1 uM incubated for 60 mins by HTRF assay relative to control.
Series [10] can be described thus: Metabolic stability in rat liver microsomes assessed as half life. The series is classed as ADME, Microsome.
The target in series [11] is Histone deacetylase. Put plainly: Inhibition of HDAC in human HeLa cell nuclear extract using Boc-Lys(Ac)-AMC as substrate. In kind it is subcellular, Nucleus.
Series [12] is described as follows: Metabolic stability in human liver microsomes assessed as half life. The series is classed as ADME, Microsome. Background: Microsomes from liver hold many membrane-bound enzymes, among them those of drug oxidation.
Series [13] is described as follows: Toxicity in female BALB/c mouse assessed as maximum tolerable dose. The conditions noted are these: in vivo.
The nature of series [14]: Half life in BALB/c mouse at 50 mg/kg, po. In kind it is ADME, organism-based. The conditions noted are these: in vivo.
The nature of series [15]: Tmax in BALB/c mouse at 50 mg/kg, po. In kind it is ADME, organism-based. Particulars: in vivo.
The nature of series [16]: Cmax in BALB/c mouse at 50 mg/kg, po. The series is classed as ADME, organism-based. The conditions noted are these: in vivo.
Series [17] can be described thus: Oral bioavailability in BALB/c mouse at 50 mg/kg. In kind it is ADME, organism-based. The conditions noted are these: in vivo.
In series [18] the test system is U-266. In words: cells. The series is classed as functional, cell-based. The conditions noted are these: Homo sapiens, U-266, 48 h.
In series [19] the test system is U-937. Put plainly: cells. Particulars: Homo sapiens, U-937, 48 h. In kind it is functional, cell-based.
Series [20] concerns HepG2. Put plainly: cells. In kind it is functional, cell-based. The conditions noted are these: Homo sapiens, HepG2, 48 h.
The next series deals with Calu-3. Put plainly: cells. In kind it is functional, cell-based. Particulars: Homo sapiens, Calu-3, 48 h.
Another series can be described thus: cells. The series is classed as functional, cell-based. The conditions noted are these: Homo sapiens, SPCA1, 48 h.
Series [21] has as its system MDA-MB-231. In words: cells. The series is classed as functional, cell-based. Particulars: Homo sapiens, MDA-MB-231, 48 h.
In series [22] the test system is MDA-MB-468. In words: cells. The series is classed as functional, cell-based. The conditions noted are these: Homo sapiens, MDA-MB-468, 48 h.
For another series, the system named is SK-OV-3. In words: cells. The series is classed as functional, cell-based. Particulars: Homo sapiens, SK-OV-3, 48 h.
Series [23] has as its system K562. In words: cells. The series is classed as functional, cell-based. Particulars: Homo sapiens, K562, 48 h.
The next series relates to PANC-1. Put plainly: cells. In kind it is functional, cell-based. The conditions noted are these: Homo sapiens, PANC-1, 48 h.
Another series addresses Histone deacetylase 3 (Homo sapiens, UniProt O15379). In words: Inhibition of recombinant HDAC3 (unknown origin) using Boc-Lys (acetyl)-AMC as substrate preincubated for 1 hr followed by substrate addition and measured after 2 hrs by fluorescence based analysis.
The subject of series [24] is HepG2. In words: animal or person. The series is classed as functional, Homo sapiens. The conditions noted are these: Mus musculus, HepG2, po, 384 h, route ig, time 16 day.

Sequence of MAP kinase-interacting serine/threonine-protein kinase 2 (Homo sapiens) (Q9HBH9 whole entry, looked up): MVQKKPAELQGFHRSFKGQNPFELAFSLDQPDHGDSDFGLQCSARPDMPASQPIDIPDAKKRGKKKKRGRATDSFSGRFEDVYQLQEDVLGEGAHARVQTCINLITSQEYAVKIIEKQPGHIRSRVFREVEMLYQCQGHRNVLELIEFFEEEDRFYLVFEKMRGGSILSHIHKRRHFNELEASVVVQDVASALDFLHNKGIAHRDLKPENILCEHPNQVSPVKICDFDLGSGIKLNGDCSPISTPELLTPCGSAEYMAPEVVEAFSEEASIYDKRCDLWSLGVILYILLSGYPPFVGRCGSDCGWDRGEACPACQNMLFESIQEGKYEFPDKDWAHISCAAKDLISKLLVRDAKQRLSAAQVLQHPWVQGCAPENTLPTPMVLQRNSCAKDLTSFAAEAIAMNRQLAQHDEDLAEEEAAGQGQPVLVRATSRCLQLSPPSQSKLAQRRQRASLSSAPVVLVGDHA
Sequence of MAP kinase-interacting serine/threonine-protein kinase 1 (Homo sapiens) (Q9BUB5 whole entry, looked up): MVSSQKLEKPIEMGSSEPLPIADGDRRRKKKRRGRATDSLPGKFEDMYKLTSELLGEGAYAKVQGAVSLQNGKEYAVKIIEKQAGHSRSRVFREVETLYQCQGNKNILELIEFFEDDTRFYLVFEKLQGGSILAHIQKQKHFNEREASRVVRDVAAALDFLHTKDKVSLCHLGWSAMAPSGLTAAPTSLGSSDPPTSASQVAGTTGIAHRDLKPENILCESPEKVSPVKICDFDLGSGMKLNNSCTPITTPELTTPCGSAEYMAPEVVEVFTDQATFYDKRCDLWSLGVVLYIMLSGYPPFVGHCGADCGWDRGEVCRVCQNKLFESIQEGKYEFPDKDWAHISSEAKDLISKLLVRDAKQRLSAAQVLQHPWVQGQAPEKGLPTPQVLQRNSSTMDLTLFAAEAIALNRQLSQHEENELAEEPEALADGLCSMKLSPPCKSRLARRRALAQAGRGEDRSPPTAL
Sequence of Histone deacetylase 3 (O15379 whole entry): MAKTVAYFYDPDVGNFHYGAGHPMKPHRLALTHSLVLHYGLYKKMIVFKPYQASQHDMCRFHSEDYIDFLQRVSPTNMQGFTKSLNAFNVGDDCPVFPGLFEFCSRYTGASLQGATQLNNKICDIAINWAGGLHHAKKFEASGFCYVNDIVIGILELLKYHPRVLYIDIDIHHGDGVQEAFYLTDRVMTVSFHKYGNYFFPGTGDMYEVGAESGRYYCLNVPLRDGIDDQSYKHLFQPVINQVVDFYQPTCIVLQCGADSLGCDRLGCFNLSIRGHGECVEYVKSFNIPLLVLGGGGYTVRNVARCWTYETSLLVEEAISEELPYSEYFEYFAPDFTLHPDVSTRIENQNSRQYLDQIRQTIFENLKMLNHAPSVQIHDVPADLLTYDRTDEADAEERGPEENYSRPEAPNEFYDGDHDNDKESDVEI
Description for A2780: Antiproliferative activity against human A2780 cells assessed as inhibition of cell growth measured after 72 hrs by CCK-8 assay
Description for A549: Antiproliferative activity against human A549 cells assessed as inhibition of cell growth measured after 72 hrs by CCK-8 assay
Description for C6: Antiproliferative activity against rat C6 cells assessed as inhibition of cell growth measured after 72 hrs by CCK-8 assay
Description for FaDu: Antiproliferative activity against human FaDu cells assessed as inhibition of cell growth measured after 72 hrs by CCK-8 assay

For `COc1cc(Nc2nc(N3CCN(c4ncc(C(=O)NO)cn4)CC3)ncc2Cl)cc(OC)c1`, the IC50 in the series with K562 [1], in the series with U-266 [2], with U-937 [3], in the series on C6, in the series with FaDu and in the series with MDA-MB-231 [4] was 280 nM throughout. Further, the IC50 in the series with MDA-MB-468 [5], with A549, in the series on A2780 and in the series with HepG2 [6] was 280 nM each time.
Regarding `O=C(CCCCCCC(=O)Nc1ccc2ncnc(Nc3ccc(F)cc3)c2n1)NO`, the GI50 with PC-3 turned out to be 2910 nM. The IC50 against Histone deacetylase [7] worked out at 780 nM. For the same compound, the inhibition in [8] was 54%; in [9], 70%.
Take `CC(C)n1cnc2c(-c3cccc(OCCCC(=O)NO)c3)nc(N3CCOCC3)nc21`: the results for the half-life in series [10], in [12] and in series [14] were greater than 45 min, greater than 45 min and 113 min, respectively. Also, the IC50 on Histone deacetylase [11] stood at 35 nM. Besides, the maximum tolerated dose (MTD) in series [13] turned out to be 200 mg/kg. In [15], the Tmax stood at 9 min. Also, the concentration in series [16] peaked (Cmax) at 1620 ng/mL. This compound registered a bioavailability in [17] of 21%.
In the case of `Cn1cc(CCCC(=O)Nc2ccc(C(=O)NO)cc2)c2ccccc21`, the IC50 in the series with U-266 [18], in the series with U-937 [19], in the series with HepG2 [20], in the series with Calu-3, in “cells” and in the series on MDA-MB-231 [21] was 160 nM throughout. The IC50 with MDA-MB-468 [22] came to 160 nM; in the series with SK-OV-3, 160 nM; in the series with K562 [23] it was 160 nM; in the series on PANC-1, 160 nM; at Histone deacetylase 3 it was 13.9 nM. In the series on HepG2 [24], this compound yielded an inhibition in vivo at 50 mg/kg of 33.1%.

(Values after ChEMBL document CHEMBL5614367, “Hydroxamic acid hybrids: Histone deacetylase inhibitors with anticancer therapeutic potency” (Eur J Med Chem, 2023).)
